# Laboratory results as given in PubChem BioAssay (NCI).
#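 Tested at 5 concentrations; 48 h exposure; 96-well plates; endpoints linearly interpolated, else capped at highest concentration. Here, GI50 denotes the concentration required for 50% inhibition of growth. TGI marks complete inhibition of growth.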
# Experiments:
# Test in all cases: NCI tumour cell line growth inhibition, 48 h
# [1] = test system: MDA-MB-435
# [2] = test system: HT29 colon
# [3] = test system: HS 578T breast
# [4] = test system: SK-MEL-5 melanoma
# [5] = test system: RPMI-8226 leukemia
# [6] = test system: OVCAR-8 ovarian
# [7] = test system: HCC-2998 colon
# [8] = test system: SNB-19 CNS
# [9] = test system: HOP-92 NSCLC
# [10] = test system: SF-539 CNS
# [11] = test system: UACC-257 melanoma
# [12] = test system: BT-549 breast
# [13] = test system: MOLT-4 leukemia
# [14] = test system: OVCAR-3 ovarian
# [15] = test system: SF-295 CNS
# [16] = test system: OVCAR-5 ovarian
# [17] = test system: DU-145 prostate
# [18] = test system: NCI-H522 lung
# [19] = test system: NCI-H226 lung
# [20] = test system: NCI-H23 lung
# [21] = test system: CCRF-CEM leukemia
# [22] = test system: 786-0 renal
# [23] = test system: MCF7 breast
# [24] = test system: UO-31 renal
# [25] = test system: RXF 393 renal
# [26] = test system: A498 renal
# [27] = test system: NCI/ADR-RES ovarian
# [28] = test system: SK-MEL-2 melanoma
# [29] = test system: ACHN renal
structure (smiles),measurement,setting,value
CC/C(=C(/c1ccc(O)cc1)c1ccc(OCCN)cc1)c1ccccc1,TGI,[1],3.42 µM
same,GI50,[2],2.49 µM
same,TGI,[2],5.78 µM
same,GI50,[3],2.82 µM
same,TGI,[3],12.8 µM
same,GI50,[4],1.97 µM
same,TGI,[4],4.3 µM
same,GI50,[5],2.37 µM
same,TGI,[5],5.65 µM
same,GI50,[6],3.12 µM
same,TGI,[6],9.94 µM
same,GI50,[7],1.95 µM
same,TGI,[7],3.72 µM
same,GI50,[8],4.95 µM
same,TGI,[8],19 µM
same,GI50,[9],1.46 µM
same,TGI,[9],5.84 µM
same,GI50,[10],3.73 µM
same,TGI,[10],8.01 µM
same,GI50,[11],10.5 µM
same,TGI,[11],22.7 µM
same,GI50,[12],6.31 µM
same,TGI,[12],19.6 µM
same,GI50,[13],3 µM
same,TGI,[13],9.07 µM
same,GI50,[14],2.96 µM
same,TGI,[14],8.01 µM
same,GI50,[15],1.86 µM
same,TGI,[15],4 µM
same,GI50,[16],6.26 µM
same,TGI,[16],20.2 µM
same,GI50,[17],3.5 µM
same,TGI,[17],10.8 µM
same,GI50,[18],4.26 µM
same,TGI,[18],9.36 µM
same,GI50,[19],11.6 µM
same,TGI,[19],30.7 µM
same,GI50,[20],4.56 µM
same,TGI,[20],16.5 µM
same,GI50,[21],2.87 µM
same,TGI,[21],8.77 µM
same,GI50,[22],2.69 µM
same,TGI,[22],7.28 µM
same,GI50,[23],< 0.0233 µM
same,TGI,[23],3.99 µM
same,GI50,[24],2.72 µM
same,TGI,[24],8.57 µM
same,GI50,[25],2.17 µM
same,TGI,[25],7.07 µM
same,GI50,[26],2.49 µM
same,TGI,[26],16.8 µM
same,GI50,[27],3.31 µM
same,TGI,[27],10.6 µM
same,GI50,[28],3.6 µM
same,TGI,[28],8.55 µM
same,GI50,[29],2.4 µM
same,TGI,[29],6.76 µM
